Literature values as cited in patent US20180042922A1 (priority 2016, published 2018).

System: patients with PTSD
Settings: RCTs

In the case of `COc1cc2nc(N3CCN(C(=O)c4ccco4)CC3)nc(N)c2cc1OC` [prazosin], the “nightmares in patients with PTSD” value is given as “decrease nightmares”.
